What was measured:
Assay type in all cases: in vivo
Annual bluegrass [1] = test: Pre-emergence herbicide test; settings: 11.21 kg/ha, read-out: % plant inhibition (Anbg)
Procedure, shortened: (§1)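 Known dose of active, dissolved or suspended in acetone or water, delivered onto seed bed prior to emergence and buried under untreated topsoil. Greenhouse incubation with watering from below. Percentage inhibition rated 10-14 days after seeding.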

Barnyardgrass [2] = test: Pre-emergence herbicide test; settings: Echinochloa crus-galli, 11.21 kg/ha, read-out: % plant inhibition (Bygr)
Procedure, shortened: as §1

Cocklebur [3] = test: Pre-emergence herbicide test; settings: Xanthium strumarium, 11.21 kg/ha, read-out: % plant inhibition (Cobu)
Procedure, shortened: as §1

Downy Brome [4] = test: Pre-emergence herbicide test; settings: Bromus tectorum, 11.21 kg/ha, read-out: % plant inhibition (Dobr)
Procedure, shortened: as §1

Indian Mustard [5] = test: Pre-emergence herbicide test; settings: Brassica juncea, 11.21 kg/ha, read-out: % plant inhibition (Inmu)
Procedure, shortened: as §1

Morningglory [6] = test: Pre-emergence herbicide test; settings: Ipomoea, 11.21 kg/ha, read-out: % plant inhibition (Mogl)
Procedure, shortened: as §1

Seedling johnsongrass [7] = test: Pre-emergence herbicide test; settings: Sorghum halepense, 11.21 kg/ha, read-out: % plant inhibition (Sejg)
Procedure, shortened: as §1

Velvetleaf [8] = test: Pre-emergence herbicide test; settings: Abutilon theophrasti, 11.21 kg/ha, read-out: % plant inhibition (Vele)
Procedure, shortened: as §1

Wild buckwheat [9] = test: Pre-emergence herbicide test; settings: Fallopia convolvulus, 11.21 kg/ha, read-out: % plant inhibition (Wibw)
Procedure, shortened: as §1

Yellow nutsedge [10] = test: Pre-emergence herbicide test; settings: Cyperus, 11.21 kg/ha, read-out: % plant inhibition (Yens)
Procedure, shortened: as §1

Annual bluegrass [11] = test: Post-emergence herbicide test; settings: 11.21 kg/ha, read-out: % plant inhibition (Anbg)
Procedure, shortened: (§2)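 Seeds or propagules are pressed into compacted topsoil, covered and sub-irrigated in the greenhouse. At two to three weeks the plants are atomizer-sprayed (170.3 kPa, 1870 L/Ha, ~0.4% emulsifier by volume). Percent inhibition relative to control is observed about 10–14 days later.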

Barnyardgrass [12] = test: Post-emergence herbicide test; settings: Echinochloa crus-galli, 11.21 kg/ha, read-out: % plant inhibition (Bygr)
Procedure, shortened: as §2

Cocklebur [13] = test: Post-emergence herbicide test; settings: Xanthium strumarium, 11.21 kg/ha, read-out: % plant inhibition (Cobu)
Procedure, shortened: as §2

Downy Brome [14] = test: Post-emergence herbicide test; settings: Bromus tectorum, 11.21 kg/ha, read-out: % plant inhibition (Dobr)
Procedure, shortened: as §2

Indian Mustard [15] = test: Post-emergence herbicide test; settings: Brassica juncea, 11.21 kg/ha, read-out: % plant inhibition (Inmu)
Procedure, shortened: as §2

Morningglory [16] = test: Post-emergence herbicide test; settings: Ipomoea, 11.21 kg/ha, read-out: % plant inhibition (Mogl)
Procedure, shortened: as §2

Seedling johnsongrass [17] = test: Post-emergence herbicide test; settings: Sorghum halepense, 11.21 kg/ha, read-out: % plant inhibition (Sejg)
Procedure, shortened: as §2

Velvetleaf [18] = test: Post-emergence herbicide test; settings: Abutilon theophrasti, 11.21 kg/ha, read-out: % plant inhibition (Vele)
Procedure, shortened: as §2

Wild buckwheat [19] = test: Post-emergence herbicide test; settings: Fallopia convolvulus, 11.21 kg/ha, read-out: % plant inhibition (Wibw)
Procedure, shortened: as §2

Yellow nutsedge [20] = test: Post-emergence herbicide test; settings: Cyperus, 11.21 kg/ha, read-out: % plant inhibition (Yens)
Procedure, shortened: as §2

Row | SMILES | inhibition at 11210 g/ha (Annual bluegrass [1]) [%] | inhibition at 11210 g/ha (Barnyardgrass [2]) [%] | inhibition at 11210 g/ha (Cocklebur [3]) [%] | inhibition at 11210 g/ha (Downy Brome [4]) [%] | inhibition at 11210 g/ha (Indian Mustard [5]) [%] | inhibition at 11210 g/ha (Morningglory [6]) [%] | inhibition at 11210 g/ha (Seedling johnsongrass [7]) [%] | inhibition at 11210 g/ha (Velvetleaf [8]) [%] | inhibition at 11210 g/ha (Wild buckwheat [9]) [%] | inhibition at 11210 g/ha (Yellow nutsedge [10]) [%] | inhibition at 11210 g/ha (Annual bluegrass [11]) [%] | inhibition at 11210 g/ha (Barnyardgrass [12]) [%] | inhibition at 11210 g/ha (Cocklebur [13]) [%] | inhibition at 11210 g/ha (Downy Brome [14]) [%] | inhibition at 11210 g/ha (Indian Mustard [15]) [%] | inhibition at 11210 g/ha (Morningglory [16]) [%] | inhibition at 11210 g/ha (Seedling johnsongrass [17]) [%] | inhibition at 11210 g/ha (Velvetleaf [18]) [%] | inhibition at 11210 g/ha (Wild buckwheat [19]) [%] | inhibition at 11210 g/ha (Yellow nutsedge [20]) [%]
1 | Cn1nc(-c2ccc(Cl)cc2Cl)c(Cl)c1C(F)(F)F [Compound 85] | 100 | 100 | 40 | 100 | 100 | 100 | 100 | 100 | 100 | 0 | 60 | 70 | 40 | 50 | 20 | 100 | 90 | 100 | 100 | 20
2 | Cn1nc(-c2cc([N+](=O)[O-])c(Cl)cc2Cl)c(Cl)c1C(F)(F)F [Compound 86] | 0 | 0 | 10 | 0 | 30 | 20 | 0 | 90 | 100 | 0 | 30 | 80 | 70 | 0 | 60 | 100 | 80 | 100 | 100 | 10
3 | Cn1nc(-c2cc(N(S(C)(=O)=O)S(C)(=O)=O)c(Cl)cc2Cl)c(Cl)c1C(F)(F)F [Compound 87] | 10 | 40 | 10 | 20 | 70 | 70 | 30 | 90 | 90 | 10 | 10 | 20 | 50 | 0 | 30 | 70 | 40 | 100 | 40 | 10
4 | Cn1nc(-c2cc(NC(=O)C(F)(F)F)c(Cl)cc2Cl)c(Cl)c1C(F)(F)F [Compound 88] | 20 | 10 | 20 | 10 | 20 | 10 | 30 | 80 | 100 | 10 | 10 | 50 | 100 | 10 | 60 | 100 | 70 | 100 | 100 | 0
5 | Cn1nc(-c2cc(S(=O)(=O)Cl)c(Cl)cc2Cl)c(Cl)c1C(F)(F)F [Compound 89] | 0 | 0 | 0 | 0 | 70 | 20 | 0 | 90 | 30 | 10 | 10 | 20 | 100 | 10 | 80 | 100 | 70 | 100 | 50 | 0
